According to the C3SDB collision cross section collection:
Where a name gives a salt, the structure may show the parent alone.

Settings: instrument: DT, single field, calibrated with Agilent tune mix (Agilent)

Compound	collision cross section (N2) ([M+H]+)	collision cross section (N2) ([M+Na]+)	collision cross section (N2) ([M-H]-)	other results
Nc1ncnc2c1ncn2[C@H]1C[C@H](O)[C@@H](COP(=O)(O)O)O1 [2'-Deoxyadenosine 5'-monophosphate]	168.1 Å²	–	–	–
CC(=O)Oc1cc(C)c(OC(C)=O)c2ccccc12 [Acetomenaphthone]	–	157.2 Å²	–	–
O=C(O)c1ccc(=O)[nH]c1 [6-Hydroxynicotinic acid]	129.5 Å²	–	118.52 Å²	–
N#CC(O)c1ccccc1 (stereo not drawn) [Mandelonitrile]	128.9 Å²	–	–	–
Cn1c(=O)[nH]c2ncn(C)c2c1=O [1,7-Dimethylxanthine]	–	–	133.24 Å²	–
Nc1ccn([C@@H]2O[C@H](COP(=O)(O)OP(=O)(O)OP(=O)(O)O)[C@@H](O)[C@H]2O)c(=O)n1 [Cytidine triphosphate]	–	–	179.08 Å²	–
O=P(O)(O)OC[C@H]1O[C@@H](O)C[C@@H]1O [2-Deoxyribose 5-phosphate]	–	–	132.47 Å²	–
O=C(O)c1ccccc1 [Benzoic acid]	–	–	121.84 Å²	–
Nc1ncnc2c1ncn2[C@@H]1O[C@H](COP(=O)(O)OS(=O)(=O)O)[C@@H](O)[C@H]1O [Adenosine 5'-phosphosulfate]	–	190.4 Å²	180.48 Å²	–
Nc1ccn([C@H]2C[C@H](O)[C@@H](COP(=O)(O)O)O2)c(=O)n1 [2'-Deoxycytidine 5'-monophosphate]	–	164 Å²	–	–
OC[C@H]1OC(O)[C@H](O)[C@H](O)[C@@H]1O (stereo partly drawn) [D-Allose]	–	143.1 Å²	–	–
CCCCC/C=C\C/C=C\C/C=C\C/C=C\CCCC(=O)O [Arachidonic Acid]	–	–	178.94 Å²	–
O=P(O)(O)O[C@]1(CO)O[C@H](CO)[C@@H](O)[C@@H]1O [Beta-D-Fructose 2-phosphate]	–	154 Å²	141.51 Å²	–
Cn1c(=O)[nH]c2[nH]c(=O)[nH]c(=O)c21 [7-Methyluric acid]	–	–	129.35 Å²	–
CCCCCCCCCCCCCCCCCCCC(=O)O [Arachidic acid]	–	–	183.41 Å²	–
O=P(O)(O)OC[C@H]1O[C@](O)(CO)[C@@H](O)[C@@H]1O [Beta-D-Fructose 6-phosphate]	149.3 Å²	–	141.02 Å²	–
N[C@@H](CS)C(=O)NCC(=O)O [Cysteinylglycine]	–	–	131.77 Å²	–
Cn1cc(CCN)c2ccccc21 [1-Methyltryptamine]	–	139 Å²	–	–
N#C[C@H](O[C@@H]1O[C@H](CO)[C@@H](O)[C@H](O)[C@H]1O)c1ccccc1 [Prunasin]	–	173.7 Å²	–	–

Further lines, with some results ahead:

collision cross section (N2) ([M+H]+)	collision cross section (N2) ([M+Na]+)	collision cross section (N2) ([M-H]-)	Compound	other results
135.8 Å²	–	–	N[C@@H](C[C@@H](O)C(=O)O)C(=O)O [L-Erythro-4-Hydroxyglutamic acid]	collision cross section (N2) ([M-H2O-H]-): 123.86 Å²
–	145 Å²	129.99 Å²	O=C(O)CC[C@@](O)(CC(=O)O)C(=O)O [Homocitrate]	–
170.7 Å²	–	173.07 Å²	CC/C=C\C/C=C\C/C=C\CCCCCCCC(=O)O [alpha-Linolenic acid]	–
–	141 Å²	–	OC[C@@H](O)[C@@H](O)[C@H](O)[C@H](O)CO [D-Mannitol]	–
284 Å²	–	283.18 Å²	CCCCCCCCCCCC(=O)SCCNC(=O)CCNC(=O)[C@H](O)C(C)(C)COP(=O)(O)OP(=O)(O)OC[C@H]1O[C@@H](n2cnc3c(N)ncnc32)[C@H](O)[C@@H]1OP(=O)(O)O [Lauroyl-CoA]	–
128.3 Å²	–	126.11 Å²	N[C@H](CO)Cc1cnc[nH]1 [L-Histidinol]	–
–	195.6 Å²	170.26 Å²	O=C(/C=C/c1ccc(O)c(O)c1)O[C@H](Cc1ccc(O)c(O)c1)C(=O)O [Rosmarinic Acid]	–
196.2 Å²	–	180.68 Å²	CCCCCCCCCCCCCC[C@@H](O)[C@@H](O)[C@@H](N)CO [Phytosphingosine]	–
–	203.3 Å²	198.85 Å²	C[C@H](CCC(=O)NCC(=O)O)[C@H]1CC[C@H]2[C@@H]3[C@H](O)C[C@@H]4C[C@H](O)CC[C@]4(C)[C@H]3CC[C@]12C [Glycochenodeoxycholate]	–
120 Å²	–	–	NCCc1cnc[nH]1 [Histamine]	–
–	203.9 Å²	197.81 Å²	C[C@H](CCC(=O)NCC(=O)O)[C@H]1CC[C@H]2[C@@H]3CC[C@@H]4C[C@H](O)CC[C@]4(C)[C@H]3C[C@H](O)[C@]12C [Glycodeoxycholic acid]	–
–	148.4 Å²	–	O=P(O)(O)OC[C@H]1O[C@@H](O)C[C@@H]1O [Deoxyribose 5-phosphate]	–
241.4 Å²	–	245.23 Å²	C=Cc1c(C)c2cc3[nH]c(cc4nc(cc5nc(cc1[nH]2)C(C)=C5CCC(=O)O)C(CCC(=O)O)=C4C)c(C)c3C=C [Protoporphyrin IX]	–
–	163.3 Å²	–	O=C(COP(=O)(O)O)[C@H](O)[C@H](O)COP(=O)(O)O [D-Ribulose 1,5-bisphosphate]	collision cross section (N2) ([M+Na-2H]-): 150.9 Å²
125.3 Å²	–	–	O=C(O)/C=C/c1ccccc1 [trans-cinnamate]	–
–	–	203.91 Å²	CC(=O)[C@H]1CC[C@H]2[C@@H]3CC=C4C[C@@H](OS(=O)(=O)O)CC[C@]4(C)[C@H]3CC[C@]12C [pregnenolone sulfate]	–
–	–	259.35 Å²	CC(C)(COP(=O)(O)OP(=O)(O)OC[C@H]1O[C@@H](n2cnc3c(N)ncnc32)[C@H](O)[C@@H]1OP(=O)(O)O)[C@@H](O)C(=O)NCCC(=O)NCCSC(=O)C[C@@](C)(O)CC(=O)O [HMG-CoA]	–
–	144.6 Å²	–	C[C@@H]1OC(O)[C@@H](O)[C@H](O)[C@@H]1O (stereo partly drawn) [L-Fucose]	–
224.7 Å²	–	–	N[C@@H](CCC(=O)N[C@@H](CSSC[C@H](NC(=O)CC[C@H](N)C(=O)O)C(=O)NCC(=O)O)C(=O)NCC(=O)O)C(=O)O [Glutathione disulfide]	–
302.9 Å²	–	301.81 Å²	CCCCCCCCCCCCCCCCCC(=O)SCCNC(=O)CCNC(=O)[C@H](O)C(C)(C)COP(=O)(O)OP(=O)(O)OC[C@H]1O[C@@H](n2cnc3c(N)ncnc32)[C@H](O)[C@@H]1OP(=O)(O)O [Stearoyl-CoA]	–
–	–	178.53 Å²	CC/C=C\C/C=C\C/C=C\C/C=C\C/C=C\CCCC(=O)O [Eicosapentaenoic acid]	–
122 Å²	–	119.54 Å²	O=Cc1cc(O)ccc1O [Gentisaldehyde]	–
–	–	147.23 Å²	O=C(O)CNC(=O)Cc1ccccc1 [Phenylacetylglycine]	–
146.7 Å²	–	–	O=c1cc(-c2ccccc2)oc2ccccc12 [Flavone]	–
152.3 Å²	–	152.2 Å²	Nc1ncnc2c1ncn2[C@H]1C[C@H](O)[C@@H](CO)O1 [Deoxyadenosine]	–
–	134.6 Å²	–	OC1OC[C@@H](O)[C@H](O)[C@H]1O (stereo partly drawn) [D-Xylose]	–
